Experimental data from patent US10189854B2, “Substituted pyrimidine compounds” (Grünenthal GmbH, priority 2014, dated 2019).

molecular target: human PDE4B1 (Homo sapiens (Human), UniProt Q07343); test: cAMP HTRF assay to determine the activity of hPDE4B1; type: biochemical; settings: IC50 inhibition of PDE4B; human recombinant PDE4B1, cAMP HTRF assay
Description: Biological Testing cAMP HTRF® Assay to Determine the Activity of hPDE4B1
The inhibiting effect of the compounds on the enzyme activity of human PDE4B1 was measured by the quantification of 5′-adenosine monophosphate (5′-AMP), which is formed from 3′,5′-cyclic adenosine monophosphate (cAMP). Human recombinant enzyme, expressed in Sf9 cells, and the HTRF (homogeneous time-resolved fluorescence) detection method were used in the assay.
The test compound or water (control) was mixed with the human recombinant PDE4B1 enzyme (4.8 U) in a buffer consisting of 44.4 mM tris-HCl, 5.28 mM MgCl2, 2.64 mM DTT and 0.044% Tween 20 (pH 7.8). After adding the cAMP enzyme substrate (final concentration 40 nM), the mixture was incubated for 30 minutes at room temperature. Then a fluorescence acceptor (Dye2 marked with cAMP), a fluorescence donor (anti-cAMP antibody marked with a europium cryptate) and the non-specific phosphodiesterase inhibitor IBMX (3-isobutyl-1-methylxanthine; final concentration 1 mM) were added. After 60 min the fluorescence transfer, which correlates with the amount of remaining cAMP, was measured with a microplate reader (Rubystar, BMG) at λex=337 nm, λem=620 nm and λem=665 nm. The enzyme activity was calculated from the quotient formed from the measured signal at 665 nm and that at 620 nm. The result was expressed as the percentage inhibition of enzyme activity of the control (without PDE4 inhibitor). The enzyme was omitted for measurement of the basal control.
[N. Saldou et al., Comparison of recombinant human PDE4 isoforms: interaction with substrate and inhibitors, Cell. Signal. Vol. 10, No. 6, 427-440, 1998]. Several compounds according to the invention are tested in the above-described assay.

Sequence of human PDE4B1 (Q07343 whole entry): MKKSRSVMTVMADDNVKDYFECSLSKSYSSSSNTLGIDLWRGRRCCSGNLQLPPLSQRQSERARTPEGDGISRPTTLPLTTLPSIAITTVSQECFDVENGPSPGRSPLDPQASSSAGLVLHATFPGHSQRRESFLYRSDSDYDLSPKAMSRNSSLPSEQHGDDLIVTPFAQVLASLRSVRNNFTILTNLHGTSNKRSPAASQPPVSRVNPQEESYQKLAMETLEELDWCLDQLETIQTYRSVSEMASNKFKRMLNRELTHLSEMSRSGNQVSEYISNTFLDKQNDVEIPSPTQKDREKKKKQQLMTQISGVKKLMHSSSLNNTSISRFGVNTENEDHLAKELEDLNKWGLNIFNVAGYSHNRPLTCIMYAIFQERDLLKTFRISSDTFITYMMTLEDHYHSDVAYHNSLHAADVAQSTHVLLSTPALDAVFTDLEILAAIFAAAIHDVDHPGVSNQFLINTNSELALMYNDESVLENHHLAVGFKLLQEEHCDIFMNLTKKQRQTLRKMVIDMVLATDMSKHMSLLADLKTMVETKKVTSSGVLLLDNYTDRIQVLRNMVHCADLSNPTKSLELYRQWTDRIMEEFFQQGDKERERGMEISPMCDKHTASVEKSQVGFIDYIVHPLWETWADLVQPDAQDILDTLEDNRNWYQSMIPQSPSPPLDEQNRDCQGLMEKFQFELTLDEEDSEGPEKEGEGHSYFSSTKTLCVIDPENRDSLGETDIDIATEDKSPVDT

Row | IC50 [µM] | Molecule
1 | < 0.1 | [1-[5-(6-Methyl-pyridin-2-yl)-pyrimidin-2-yl]-spiro[1,2-dihydro-indole-3,1′-cyclopropane]-6-yl]-morpholin-4-yl-methanone [Compound 186]
2 | < 0.1 | N#Cc1ccc(F)c(-c2cnc(N3CC4(CC4)c4ccc(C(=O)N5CCNCC5)cc43)nc2)c1 [Compound 109, 4-Fluoro-3-[2-[6-(piperazine-1-carbonyl)-spiro[1,2-dihydro-indole-3,1′-cyclopropane]-1-yl]-pyrimidin-5-yl]-benzonitrile]
3 | 0.1 to 1 | CN(C(=O)c1ccc2c(c1)N(c1ncc(-c3ccccc3F)cn1)CC21CC1)C1CC1 [Compound 46, N-Cyclopropyl-1-[5-(2-fluorophenyl)-pyrimidin-2-yl]-N-methyl-spiro[1,2-dihydro-indole-3,1′-cyclopropane]-6-carboxylic acid amide]
4 | < 0.1 | Cc1cc(-c2cnc(N3CC4(CC4)c4ccc(C(=O)N5CCOCC5)cc43)nc2)sn1 [Compound 155, [1-[5-(3-Methyl-isothiazol-5-yl)-pyrimidin-2-yl]-spiro[1,2-dihydro-indole-3,1′-cyclopropane]-6-yl]-morpholin-4-yl-methanone]
5 | < 0.1 | O=C(c1ccc2c(c1)N(c1ncc(-c3ccccc3)cn1)CC21CC1)N1CCNCC1 [Compound 49, [1-(5-Phenyl-pyrimidin-2-yl)-spiro[1,2-dihydro-indole-3,1′-cyclopropane]-6-yl]-piperazin-1-yl-methanone]
6 | < 0.1 | 1-[5-(3-Cyano-phenyl)-pyrimidin-2-yl]-N-(2-hydroxy-ethyl)-N-methyl-spiro[1,2-dihydro-indole-3,1′-cyclopropane]-6-carboxylic acid amide [Compound 194]
7 | < 0.1 | [1-[5-(1-Fluorophenyl)-pyrimidin-2-yl]-spiro[1,2-dihydro-indole-3,1′-cyclopropane]-6-yl]-pyrrolidin-1-yl-methanone [Compound 3]
8 | < 0.1 | CN1CCN(C(=O)c2ccc3c(c2)N(c2ncc(-c4ccccc4F)cn2)CC32CC2)CC1 [Compound 60, [1-[5-(2-Fluorophenyl)-pyrimidin-2-yl]-spiro[1,2-dihydro-indole-3,1′-cyclopropane]-6-yl]-(4-methyl-piperazin-1-yl)-methanone]
9 | < 0.1 | NC(=O)c1cccc(-c2cnc(N3CC4(CC4)c4ccc(C(=O)N5CCOCC5)cc43)nc2)c1 [Compound 54, 3-[2-[6-(Morpholine-4-carbonyl)-spiro[1,2-dihydro-indole-3,1′-cyclopropane]-1-yl]-pyrimidin-5-yl]-benzamide]
10 | 0.1 to 1 | O=C(c1ccc2c(c1)N(c1ncc(-c3ccccc3F)cn1)CC21CC1)N1CCS(=O)(=O)CC1 [Compound 106, (1,1-Dioxo-[1,4]thiazinan-4-yl)-[1-[5-(2-fluorophenyl)-pyrimidin-2-yl]-spiro[1,2-dihydro-indole-3,1′-cyclopropane]-6-yl]-methanone]
11 | < 0.1 | CN(C)C(=O)c1ccc2c(c1)N(c1ncc(-c3cccc(F)c3)cn1)CC21CC1 [Compound 125, 1-[5-(3-Fluorophenyl)-pyrimidin-2-yl]-N,N-dimethyl-spiro[1,2-dihydro-indole-3,1′-cyclopropane]-6-carboxylic acid amide]
12 | 0.1 to 1 | CCN(CC)C(=O)c1ccc2c(c1)N(c1ncc(-c3ccccc3F)cn1)CC21CC1 [Compound 47, N,N-Diethyl-1-[5-(2-fluorophenyl)-pyrimidin-2-yl]-spiro[1,2-dihydro-indole-3,1′-cyclopropane]-6-carboxylic acid amide]
13 | < 0.1 | O=C(c1ccc2c(c1)N(c1ncc(-c3ccccc3F)cn1)CC21CC1)N1CCOCC1 [Compound 1, [1-[5-(2-Fluorophenyl)-pyrimidin-2-yl]-spiro[1,2-dihydro-indole-3,1′-cyclopropane]-6-yl]-morpholin-4-yl-methanone]
14 | 0.1 to 1 | COc1cccc(F)c1-c1cnc(N2CC3(CC3)c3ccc(C(=O)N4CCOCC4)cc32)nc1 [Compound 19, [1-[5-(2-Fluoro-6-methoxy-phenyl)-pyrimidin-2-yl]-spiro[1,2-dihydro-indole-3,1′-cyclopropane]-6-yl]-morpholin-4-yl-methanone]
15 | 0.1 to 1 | O=C(c1ccc2c(c1)N(c1ncc(-c3ccc(F)c(F)c3)cn1)CC21CC1)N1CCOCC1 [Compound 53, [1-[5-(3,4-Difluoro-phenyl)-pyrimidin-2-yl]-spiro[1,2-dihydro-indole-3,1′-cyclopropane]-6-yl]-morpholin-4-yl-methanone]
16 | < 0.1 | Cc1nc(C)c(-c2cnc(N3CC4(CC4)c4ccc(C(=O)N5CCOCC5)cc43)nc2)s1 [Compound 154, [1-[5-(2,4-Dimethyl-thiazol-5-yl)-pyrimidin-2-yl]-spiro[1,2-dihydro-indole-3,1′-cyclopropane]-6-yl]-morpholin-4-yl-methanone]
17 | 0.1 to 1 | N#Cc1cccc(F)c1-c1cnc(N2CC3(CC3)c3ccc(C(=O)N4CCOCC4)cc32)nc1 [Compound 20, 3-Fluoro-2-[2-[6-(morpholine-4-carbonyl)-spiro[1,2-dihydro-indole-3,1′-cyclopropane]-1-yl]-pyrimidin-5-yl]-benzonitrile]
18 | < 0.1 | Cn1ccc(-c2cnc(N3CC4(CC4)c4ccc(C(=O)N5CC[C@@H](N)C5)cc43)nc2)c1 [Compound 172, [(3R)-3-Amino-pyrrolidin-1-yl]-[1-[5-(1-methyl-1H-pyrrol-3-yl)-pyrimidin-2-yl]-spiro[1,2-dihydro-indole-3,1′-cyclopropane]-6-yl]-methanone]
19 | < 0.1 | N[C@@H]1CCN(C(=O)c2ccc3c(c2)N(c2ncc(-c4ccccc4F)cn2)CC32CC2)C1 [Compound 40, [(3R)-3-Amino-pyrrolidin-1-yl]-[1-[5-(2-fluorophenyl)-pyrimidin-2-yl]-spiro[1,2-dihydro-indole-3,1′-cyclopropane]-6-yl]-methanone]
20 | 1 to 10 | O=C(c1ccc2c(c1)N(c1ncc(-c3ccccc3F)cn1)CC21CC1)N1CCCC2(COC2)C1 [Compound 79, [1-[5-(2-Fluorophenyl)-pyrimidin-2-yl]-spiro[1,2-dihydro-indole-3,1′-cyclopropane]-6-yl]-(2-oxa-8-azaspiro[3.5]nonan-8-yl)-methanone]
21 | < 0.1 | Cc1cc(-c2cnc(N3CC4(CC4)c4ccc(C(=O)N(C)CCO)cc43)nc2)ccn1 [Compound 214, N-(2-Hydroxy-ethyl)-N-methyl-1-[5-(2-methyl-pyridin-4-yl)-pyrimidin-2-yl]-spiro[1,2-dihydro-indole-3,1′-cyclopropane]-6-carboxylic acid amide]
22 | 0.1 to 1 | N#CCCN1CCN(C(=O)c2ccc3c(c2)N(c2ncc(-c4ccccc4F)cn2)CC32CC2)CC1 [Compound 76, 3-[4-[1-[5-(2-Fluorophenyl)-pyrimidin-2-yl]-spiro[1,2-dihydro-indole-3,1′-cyclopropane]-6-carbonyl]-piperazin-1-yl]-propionitrile]
23 | 1 to 10 | NC(=O)C1CCN(C(=O)c2ccc3c(c2)N(c2ncc(-c4ccccc4F)cn2)CC32CC2)CC1 [Compound 216, 1-[1-[5-(2-Fluorophenyl)-pyrimidin-2-yl]-spiro[1,2-dihydro-indole-3,1′-cyclopropane]-6-carbonyl]-piperidine-4-carboxylic acid amide]
24 | < 0.1 | NC(=O)c1ccnc(-c2cnc(N3CC4(CC4)c4ccc(C(=O)N5CCOCC5)cc43)nc2)c1 [Compound 164, 2-[2-[6-(Morpholine-4-carbonyl)-spiro[1,2-dihydro-indole-3,1′-cyclopropane]-1-yl]-pyrimidin-5-yl]-pyridine-4-carboxylic acid amide]
25 | < 0.1 | 1-[5-(3-Carbamoyl-phenyl)-pyrimidin-2-yl]-N-(2-hydroxy-ethyl)-N-methyl-spiro[1,2-dihydro-indole-3,1′-cyclopropane]-6-carboxylic acid amide [Compound 198]
26 | < 0.1 | CN(C)C(=O)c1ccc2c(c1)N(c1ncc(-c3ccccc3F)cn1)CC21CC1 [Compound 2, 1-[5-(2-Fluorophenyl)-pyrimidin-2-yl]-N,N-dimethyl-spiro[1,2-dihydro-indole-3,1′-cyclopropane]-6-carboxylic acid amide]
27 | < 0.1 | O=C(c1ccc2c(c1)N(c1ncc(-c3cc(Cl)ccc3F)cn1)CC21CC1)N1CCOCC1 [Compound 58, [1-[5-(5-Chloro-2-fluoro-phenyl)-pyrimidin-2-yl]-spiro[1,2-dihydro-indole-3,1′-cyclopropane]-6-yl]-morpholin-4-yl-methanone]
28 | < 0.1 | CN(CCO)C(=O)c1ccc2c(c1)N(c1ncc(-c3cc(F)cc(F)c3)cn1)CC21CC1 [Compound 126, 1-[5-(3,5-Difluoro-phenyl)-pyrimidin-2-yl]-N-(2-hydroxy-ethyl)-N-methyl-spiro[1,2-dihydro-indole-3,1′-cyclopropane]-6-carboxylic acid amide]
29 | < 0.1 | O=C(c1ccc2c(c1)N(c1ncc(-c3ccc(F)cc3)cn1)CC21CC1)N1CCOCC1 [Compound 43, [1-[5-(4-Fluorophenyl)-pyrimidin-2-yl]-spiro[1,2-dihydro-indole-3,1′-cyclopropane]-6-yl]-morpholin-4-yl-methanone]
